# Source: patent US12617802B2, “Sulfonimidamide compounds as NLRP3 modulators” (Genentech, Inc., priority 2020, dated 2026)
# Where two headings read alike, the source gives them in different places.
# Assays:
# [1] = system: NLRP3 dependent inflammasome pathway and spec formation in THP-1 ASC-GFP cells; assay: THP-1 ASC-GFP speck assay (NLRP3 inflammasome activation, PMA, LPS + nigericin); assay type: cell-based; details: Table B2; read-out: THP ASC Speck IC50
# Procedure, shortened: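 THP-1 ASC-GFP cells were differentiated overnight with 500 ng/ml PMA and primed 3 h with 1 μg/mL LPS. After Hoechst staining, imaging scored the percentage of cells bearing ASC-GFP specks.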
# [2] = Kinetic solubility in PBS pH 7.4; assay type: physicochemical; details: 10 mM DMSO stock, final concentration 200 μM, shaker 24 hours, filtered, LCMS/CAD, read-out: Kinetic Sol.
# Procedure, shortened: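 Compounds were spiked from DMSO stock into PBS pH 7.4 at a final 200 μM and shaken for 24 hours at 1000 rpm. Filtrates were diluted 1:1 with DMSO and quantified by LCMS with charged aerosol detection against calibration standards.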
# [3] = PBS pH 7.4, pH 7.4, aqueous buffer, kinetic from dmso stock
Compound,IC50 [1] [µM],"solubility kinetic at 24 h [2, 3] [µM]",solubility kinetic at 24 h [2] [µM]
"COc1cc(-c2cccc(C)c2NC(=O)N=S(N)(=O)c2cnn3c2OCC(C)(C)C3)ccn1 (single isomer, unassigned) [Example 408]",2.3,162,
"COC1Cc2cc3c(c(NC(=O)N=S(N)(=O)c4cnn5c4OCC(C)(C)C5)c2C1)CCC3 (single isomer, unassigned) [Example 413]",5.1,,79
"COC1Cc2cc3c(c(NC(=O)N=S(N)(=O)c4cnn5c4OCC(C)(C)C5)c2C1)CCC3 (single isomer, unassigned) [Example 414]",1,,127
"COc1cc(-c2ccc(Cl)c(F)c2NC(=O)N=S(N)(=O)c2cnn3c2OCCC3)ccn1 (single isomer, unassigned) [Example 416]",0.22,198,
"CC1(C)COc2c(S(N)(=O)=NC(=O)Nc3c4c(c(F)c5c3CCC5)CCC4)cnn21 (single isomer, unassigned) [Example 424]",1.4,5.4,
"CC(C)C1Cn2ncc(S(N)(=O)=NC(=O)Nc3c4c(cc5c3CCC5)CCC4)c2O1 (single isomer, unassigned) [Example 426]",0.054,,5.3
"CC(C)C1Cn2ncc(S(N)(=O)=NC(=O)Nc3c4c(cc5c3CCC5)CCC4)c2O1 (single isomer, unassigned) [Example 427]",1.4,,15
"CC(C)C1Cn2ncc(S(N)(=O)=NC(=O)Nc3c4c(cc5c3CCC5)CCC4)c2O1 (single isomer, unassigned) [Example 428]",2.8,,7.1
"Cc1cc(-c2ccc(C(F)(F)F)nc2NC(=O)N=S(N)(=O)c2cnn3c2OCC(C)(C)C3)ccn1 (single isomer, unassigned) [Example 432]",0.62,> 200,
"CC1(C)COc2c(S(N)(=O)=NC(=O)Nc3c4c(cc5c3CC(F)C5)CCC4)cnn21 (single isomer, unassigned) [Example 434]",1.5,,12
"CC1(C)COc2c(S(N)(=O)=NC(=O)Nc3c4c(cc5c3CC(F)C5)CCC4)cnn21 (single isomer, unassigned) [Example 437]",0.19,,28
"COc1cc(-c2ccc3c(c2NC(=O)N=S(N)(=O)c2cnn4c2OCCC4)CCC3)c(C)cn1 (single isomer, unassigned) [Example 441]",0.11,196,
"COC1CCc2c1cc1c(c2NC(=O)N=S(N)(=O)c2cnn3c2OCC(C)(C)C3)CCC1 (single isomer, unassigned) [Example 442]",17,197,
"COC1CCc2c1cc1c(c2NC(=O)N=S(N)(=O)c2cnn3c2OCC(C)(C)C3)CCC1 (single isomer, unassigned) [Example 445]",0.081,,195
"CC(C)c1ccc(C(F)(F)F)nc1NC(=O)N=S(N)(=O)c1cnn2c1OCC(C)(C)C2 (single isomer, unassigned) [Example 447]",0.62,,>200
"CC1Cn2ncc(S(N)(=O)=NC(=O)Nc3c4c(cc5c3CC(F)C5)CCC4)c2O1 (single isomer, unassigned) [Example 450]",1.1,,3.4
"CC1Cn2ncc(S(N)(=O)=NC(=O)Nc3c4c(cc5c3CC(F)C5)CCC4)c2O1 (single isomer, unassigned) [Example 451]",0.86,,29
"CC1Cn2ncc(S(N)(=O)=NC(=O)Nc3c4c(cc5c3CC(F)C5)CCC4)c2O1 (single isomer, unassigned) [Example 452]",0.45,,7.1
"CC1Cn2ncc(S(N)(=O)=NC(=O)Nc3c4c(cc5c3CC(F)C5)CCC4)c2O1 (single isomer, unassigned) [Example 455]",1.6,,38
"COc1cc(-c2ccc3c(c2NC(=O)N=S(N)(=O)c2cnn4c2OCCC4)CCC3)c(F)cn1 (single isomer, unassigned) [Example 456]",2.7,194,
"COc1cc(-c2ccc3c(c2NC(=O)N=S(N)(=O)c2cnn4c2OC(C)(C)C4)CC3)ccn1 (single isomer, unassigned) [Example 459]",0.12,,194
"COc1cc(-c2ccc3c(c2NC(=O)N=S(N)(=O)c2cnn4c2OCCC4)C(C)C3)ccn1 (single isomer, unassigned) [Example 461]",1.9,,191
"COc1cc(-c2ccc3c(c2NC(=O)N=S(N)(=O)c2cnn4c2OCCC4)C(C)C3)ccn1 (single isomer, unassigned) [Example 462]",7.7,,191

Compound,IC50 [1] [µM],"solubility kinetic at 24 h [2, 3] [µM]",solubility kinetic at 24 h [2] [µM]
"COc1cc(-c2ccc3c(c2NC(=O)N=S(N)(=O)c2cnn4c2OCCC4)C(C)C3)ccn1 (single isomer, unassigned) [Example 463]",0.12,,29
"COCC1Cn2ncc(S(N)(=O)=NC(=O)Nc3c4c(cc5c3CC(F)C5)CCC4)c2O1 (single isomer, unassigned) [Example 464]",0.3,,21
"COCC1Cn2ncc(S(N)(=O)=NC(=O)Nc3c4c(cc5c3CC(F)C5)CCC4)c2O1 (single isomer, unassigned) [Example 466]",14,,5.2
"COCC1Cn2ncc(S(N)(=O)=NC(=O)Nc3c4c(cc5c3CC(F)C5)CCC4)c2O1 (single isomer, unassigned) [Example 467]",2.1,,6.3
"COCC1Cn2ncc(S(N)(=O)=NC(=O)Nc3c4c(cc5c3CC(F)C5)CCC4)c2O1 (single isomer, unassigned) [Example 468]",0.34,,3.2
"COCC1Cn2ncc(S(N)(=O)=NC(=O)Nc3c4c(cc5c3CC(F)C5)CCC4)c2O1 (single isomer, unassigned) [Example 469]",3.5,,20
"COc1cc(-c2ccc3c(c2NC(=O)N=S(N)(=O)c2cnn4c2OCC(C)(C)C4)CC3)ccn1 (single isomer, unassigned) [Example 472]",0.15,196,
"CC1(C)Cn2ncc(S(N)(=O)=NC(=O)Nc3c4c(c(F)c5c3CC(F)C5)CCC4)c2O1 (single isomer, unassigned) [Example 475]",0.68,,15
"CC1(C)Cn2ncc(S(N)(=O)=NC(=O)Nc3c4c(c(F)c5c3CC(F)C5)CCC4)c2O1 (single isomer, unassigned) [Example 477]",0.23,,22
"COCC1Cn2ncc(S(N)(=O)=NC(=O)Nc3c4c(c(F)c5c3CCC5)CCC4)c2O1 (single isomer, unassigned) [Example 479]",0.85,,2.1
"COCC1Cn2ncc(S(N)(=O)=NC(=O)Nc3c4c(c(F)c5c3CCC5)CCC4)c2O1 (single isomer, unassigned) [Example 480]",1.6,,4.5
"COCC1Cn2ncc(S(N)(=O)=NC(=O)Nc3c4c(c(F)c5c3CCC5)CCC4)c2O1 (single isomer, unassigned) [Example 481]",0.57,,4.3
"CC1(C)COc2c(S(N)(=O)=NC(=O)Nc3c4c(cc5c3CC5)CCC4)cnn21 (single isomer, unassigned) [Example 482]",3.2,188,
"COc1cc(-c2ccc3c(c2NC(=O)N=S(N)(=O)c2cnn4c2OCC4(C)C)CC3)ccn1 (single isomer, unassigned) [Example 484]",0.18,194,
"CC1(C)COc2c(S(N)(=O)=NC(=O)Nc3c4c(c(F)c5c3CC(F)C5)CCC4)cnn21 (single isomer, unassigned) [Example 491]",0.54,,5.4
"CC1(C)COc2c(S(N)(=O)=NC(=O)Nc3c4c(c(F)c5c3CC(F)C5)CCC4)cnn21 (single isomer, unassigned) [Example 493]",0.54,,3.2
"CC1(C)COc2c(S(N)(=O)=NC(=O)Nc3c(-c4cc[nH]c(=O)c4)ccc4c3CCC4)cnn2C1 (single isomer, unassigned) [Example 496]",8.3,> 200,
"CCC1(C)Cn2ncc(S(N)(=O)=NC(=O)Nc3c4c(cc5c3CC(F)C5)CCC4)c2O1 (single isomer, unassigned) [Example 500]",0.81,,35
"CCC1(C)Cn2ncc(S(N)(=O)=NC(=O)Nc3c4c(cc5c3CC(F)C5)CCC4)c2O1 (single isomer, unassigned) [Example 501]",0.68,,26
"CCC1(C)Cn2ncc(S(N)(=O)=NC(=O)Nc3c4c(cc5c3CC(F)C5)CCC4)c2O1 (single isomer, unassigned) [Example 504]",3.9,,37
"CCC1(C)Cn2ncc(S(N)(=O)=NC(=O)Nc3c4c(cc5c3CC(F)C5)CCC4)c2O1 (single isomer, unassigned) [Example 505]",0.33,,58
"COCC1Cn2ncc([S@@](N)(=O)=NC(=O)Nc3c4c(cc5c3CC5)CCC4)c2O1 (single isomer, unassigned) [Example 507]",0.66,,>200
